From paper PMC6886523 (Nature chemical biology, 2017)
≈ marks a conversion by molar mass, not a printed value.

Key:
[1] = tested on: Mtb; test: microbe, parasite or virus in culture; assay type: cell-based
[2] = tested on: Mtb; assay type: cell-based, Mycobacterium tuberculosis
[3] = tested on: panel of Gram-negative and Gram-positive bacterial species; assay type: cell-based
[4] = molecular target: T1, Mtb TrpAB (Mycobacterium tuberculosis, UniProt P9WFX9+P9WFY1); assay type: biochemical
[5] = molecular target: T1, Mtb TrpAB; assay type: biochemical; remark: listed apart in the source
[6] = molecular target: T1, Mtb TrpAB; assay type: binding
[7] = molecular target: TrpAB (Mycobacterium tuberculosis, UniProt P9WFX9+P9WFY1); assay type: biochemical
[8] = tested on: Mtb in J774 macrophages; assay type: cell-based; conditions: day 3 CFU/day 0 CFU
[9] = tested on: M. marinum; test: Zebrafish embryo infection, wild-type M. marinum; assay type: in vivo, Danio rerio (zebrafish); conditions: after 5 d of treatment
[10] = molecular target: T1, Mtb TrpAB
[11] = ref PubChem compound ID 54650477; cited from earlier work
[12] = in vitro; conditions: mouse, microsomes
[13] = in vitro; conditions: mouse, hepatocytes
[14] = tested on: GAPDH; test: GAPDH counter-check in coupled fluorescence assay; conditions: fluorescence assay conditions

T1 sequence (P9WFY1 whole entry): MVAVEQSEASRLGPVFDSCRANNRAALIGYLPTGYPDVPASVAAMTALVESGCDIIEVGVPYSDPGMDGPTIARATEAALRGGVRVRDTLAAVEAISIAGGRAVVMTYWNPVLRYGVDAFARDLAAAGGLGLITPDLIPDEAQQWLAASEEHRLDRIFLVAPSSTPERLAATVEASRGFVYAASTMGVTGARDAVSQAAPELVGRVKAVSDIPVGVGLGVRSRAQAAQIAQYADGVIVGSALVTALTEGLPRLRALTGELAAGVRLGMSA
T1 sequence (P9WFX9 12-421): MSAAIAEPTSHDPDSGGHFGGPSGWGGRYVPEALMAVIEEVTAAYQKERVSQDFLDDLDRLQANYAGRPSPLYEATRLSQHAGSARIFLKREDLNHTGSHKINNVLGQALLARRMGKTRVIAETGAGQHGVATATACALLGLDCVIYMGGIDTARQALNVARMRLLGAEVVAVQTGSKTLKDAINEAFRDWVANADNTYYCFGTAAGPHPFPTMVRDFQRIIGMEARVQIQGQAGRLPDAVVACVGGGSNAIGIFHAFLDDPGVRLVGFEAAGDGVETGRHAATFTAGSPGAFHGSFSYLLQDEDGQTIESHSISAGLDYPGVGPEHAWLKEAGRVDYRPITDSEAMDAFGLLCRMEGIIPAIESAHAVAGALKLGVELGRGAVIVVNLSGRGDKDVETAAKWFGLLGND
Sequence of TrpAB (P9WFX9 12-421): as above
Sequence of TrpAB (P9WFY1 whole entry): as the sequence (P9WFY1 whole entry) above

With `N#C[C@@H]1N[C@@H](CO)[C@H]1c1ccc(-c2ccccc2F)cc1` [BRD4592, (2R,3S,4R)-3-(2′-fluoro-[1,1′-biphenyl]-4-yl)-4-(hydroxymethyl)azetidine-2-carbonitrile] the “effect of L-Trp addition to growth medium on lethal effects” value ([1]; 1 mM L-Trp supplementation) was “rescued”, the MIC90 ([1]; Mycobacterium tuberculosis, read-out: MIC90 (minimal concentration needed to inhibit 90% of bacterial growth)) was 3 µM (≈ 0.847 µg/mL) and the “activity among the stereoisomers of the azetidine” value ([1]; three stereogenic centers, eight stereoisomeric forms) was “only the BRD4592 stereoisomer was active”. The “reduction of colony-forming units (CFUs) of Mtb cultures” value [2] was 2–3 logs, the “spectrum of activity against bacterial species” value [3] was “active against several mycobacterial species but not other bacteria tested” and the “initial inhibition of the α-reaction” value [4] was “more than 200 fold”. The “kcat^α under saturating compound” value [4] was 0.08 ± 0.01 min⁻¹, the “mode of inhibition versus IGP” value [4] was “uncompetitive” and the “mode of inhibition versus L-Ser” value [4] was “mixed-type inhibitor”. For the same molecule, the “α value (mixed-type inhibition)” value [4] was 0.81 ± 0.06, the “α values (mixed model)” value [4] was under 0.00001 and the “initial inhibition of the β-reaction” value [5] was “more than 200 fold”. For the same molecule, the “kcat^β under saturating compound” value [5] was 0.26 ± 0.01 min⁻¹, the “mode of inhibition with respect to indole” value [5] was “uncompetitive” and the “rate of L-Trp production slower than uninhibited enzyme” value [5] was 750 times. For the same molecule, the “increase in affinity of TrpAB for L-Trp” value [6] was 4.5 fold, the reversibility of inhibition [7] was “reversible inhibitor” and the “restriction of Mtb growth in macrophages compared to DMSO” value [8] was “eight-fold”. The “restriction of M. marinum growth in zebrafish embryos compared to DMSO” value [9] was ~ 1.5 logs, the “Tm of TrpAB with compound” value [10] was 81.6 ± 0.2 °C and the “increase of Tm of TrpAB in active β^C conformation” value [10] was 8 °C. The “stabilization of the open conformation” value [10] was “did not stabilize”, the “activity in 36 screens reported in PubChem” value [11] was “no activity” and the microsomal CLint at 1 μM [12] was 336 µL/min/mg. The hepatocyte CLint at 1 μM [13] was 47.2 µL/min/1e6 cells and the “inhibition of GAPDH activity” value [14] was “not found to inhibit”.
